As usually defined, the EC50 is the concentration needed to bring the measured effect to its halfway point. A lower EC50 goes with a more potent agent.

Consider four compounds from article PMC8890504, “Evolution of Brain-Expressed Biogenic Amine Receptors into Olfactory Trace Amine-Associated Receptors” (Molecular Biology and Evolution, 2022).

Where “and” joins values, the source holds several entries; their conditions need not be identical. Equal values may be shown once.

The target of one assay is T1, mouse TAAR5 (Mus musculus, UniProt Q5QD14).
T1 construct: bovine rhodopsin N-terminal 20 amino acids (Rho tag); expressed in transfected cells; host or cells: HEK293(T) (SEAP assay) or Hana3A (Dual-Glo assay)
T1 sequence (Q5QD14 whole entry): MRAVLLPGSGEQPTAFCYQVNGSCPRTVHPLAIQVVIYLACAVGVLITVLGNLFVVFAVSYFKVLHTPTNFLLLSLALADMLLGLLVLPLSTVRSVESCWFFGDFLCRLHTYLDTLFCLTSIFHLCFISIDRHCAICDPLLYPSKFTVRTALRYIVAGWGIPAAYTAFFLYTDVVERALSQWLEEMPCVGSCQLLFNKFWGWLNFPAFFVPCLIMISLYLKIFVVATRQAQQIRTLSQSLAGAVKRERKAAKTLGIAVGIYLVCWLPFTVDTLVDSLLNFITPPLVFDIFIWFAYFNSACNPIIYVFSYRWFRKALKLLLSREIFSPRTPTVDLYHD
Put plainly: Cell-based receptor activation reporter assay (SEAP / Dual-Glo luciferase). How it is done: (§1) Fluorescence was measured with a BioTek Microplate reader.
On the technique in general: In a reporter assay the amount or activity of a reporter protein is the signal.

The target in a further assay is T2, mouse TAAR8c (Mus musculus, UniProt Q5QD05).
T2 construct: bovine rhodopsin N-terminal 20 amino acids (Rho tag); expressed in transfected cells; host or cells: HEK293(T) (SEAP assay) or Hana3A (Dual-Glo assay)
T2 sequence (Q5QD05 whole entry): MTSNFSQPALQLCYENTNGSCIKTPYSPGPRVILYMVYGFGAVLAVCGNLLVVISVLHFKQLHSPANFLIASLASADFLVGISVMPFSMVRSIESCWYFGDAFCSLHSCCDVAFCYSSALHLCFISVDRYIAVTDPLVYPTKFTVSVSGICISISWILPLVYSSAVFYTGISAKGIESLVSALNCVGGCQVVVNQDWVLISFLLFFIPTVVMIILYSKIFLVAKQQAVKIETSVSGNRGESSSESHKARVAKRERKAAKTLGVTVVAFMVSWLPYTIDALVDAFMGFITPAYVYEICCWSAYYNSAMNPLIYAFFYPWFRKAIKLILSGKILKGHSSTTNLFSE
Described as above. How it is done:
as §1

Another assay deals with shark TAARS1b (Chiloscyllium punctatum, UniProt A0A401S5C1). The assay is described as above. On the set-up: species or system bamboo shark. How it is done: as §1
Sequence of shark TAARS1b (A0A401S5C1 entry or part of it): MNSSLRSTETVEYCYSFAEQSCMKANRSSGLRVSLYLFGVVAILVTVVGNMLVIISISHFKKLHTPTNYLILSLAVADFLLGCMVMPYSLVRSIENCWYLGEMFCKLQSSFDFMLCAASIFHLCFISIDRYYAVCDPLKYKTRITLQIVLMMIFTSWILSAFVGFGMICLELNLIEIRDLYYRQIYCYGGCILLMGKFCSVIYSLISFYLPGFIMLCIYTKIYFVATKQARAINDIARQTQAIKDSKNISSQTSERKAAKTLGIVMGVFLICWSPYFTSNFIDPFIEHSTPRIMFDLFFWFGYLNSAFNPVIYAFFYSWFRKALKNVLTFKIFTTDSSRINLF
A further assay deals with TARLL3h (Petromyzon marinus, UniProt A0A678XJN9). The assay is described as above. On the set-up: species or system sea lamprey. How it is done: as §1
Sequence of TARLL3h (A0A678XJN9 entry or part of it): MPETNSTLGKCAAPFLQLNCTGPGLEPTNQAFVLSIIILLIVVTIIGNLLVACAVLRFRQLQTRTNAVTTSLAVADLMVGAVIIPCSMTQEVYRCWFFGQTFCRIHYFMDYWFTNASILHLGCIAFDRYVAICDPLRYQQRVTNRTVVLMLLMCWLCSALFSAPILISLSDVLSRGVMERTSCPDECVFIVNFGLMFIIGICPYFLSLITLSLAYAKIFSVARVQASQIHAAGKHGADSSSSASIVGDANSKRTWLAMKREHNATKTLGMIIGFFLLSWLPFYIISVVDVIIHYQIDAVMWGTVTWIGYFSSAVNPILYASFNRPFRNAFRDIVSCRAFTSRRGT
The test system of the next assay is TARLL3h Y3.33A. The assay can be described thus: Site-directed mutagenesis, cell-based receptor activation. On the set-up: species or system sea lamprey. To be noted: mutation of Tyr3.33 to alanine; ligand per fig. S9C. How it is done: (§2) Recognition of diamines in TAARs involves two aspartic acids, Asp^3.32 and Asp^5.42 ([Li et al. 2015]; [Sharma et al. 2016]). However, although Asp^3.32 is retained in TARLL3h, Asp^5.42 is not found, implying a distinct diamine recognition mechanism in TARLL3h. To investigate this further, we performed homology modeling and ligand docking in TARLL3h. In addition to Asp^3.32 that forms a salt bridge with N,N,N′,N′-tetramethyl-1,4-butanediamine or N,N,N′,N′-tetramethyl-1,3-propanediamine, Tyr^3.33 binds to the other amino group through pi–cation interactions in TARLL3h (fig. 4D). […] To verify the docking results, we performed site-directed mutagenesis in TARLL3h.
as §1

For a further assay, the system named is TARLL3h Y3.33F. Described as above. To be noted: mutation of Tyr3.33 to phenylalanine; ligand per fig. S9C. On the set-up: species or system sea lamprey. How it is done: as §2, §1
In a further assay the test system is TARLL3h D3.32A. The description is as above. On the set-up: species or system sea lamprey. Conditions: mutation of Asp3.32 to alanine; ligand per fig. S9C. How it is done: as §2, §1
For the next assay, the target named is T3, rat TAAR9 (Rattus norvegicus, UniProt Q923Y6).
T3 construct: bovine rhodopsin N-terminal 20 amino acids (Rho tag); expressed in transfected cells; host or cells: HEK293(T) (SEAP assay) or Hana3A (Dual-Glo assay)
T3 sequence (Q923Y6 1-338): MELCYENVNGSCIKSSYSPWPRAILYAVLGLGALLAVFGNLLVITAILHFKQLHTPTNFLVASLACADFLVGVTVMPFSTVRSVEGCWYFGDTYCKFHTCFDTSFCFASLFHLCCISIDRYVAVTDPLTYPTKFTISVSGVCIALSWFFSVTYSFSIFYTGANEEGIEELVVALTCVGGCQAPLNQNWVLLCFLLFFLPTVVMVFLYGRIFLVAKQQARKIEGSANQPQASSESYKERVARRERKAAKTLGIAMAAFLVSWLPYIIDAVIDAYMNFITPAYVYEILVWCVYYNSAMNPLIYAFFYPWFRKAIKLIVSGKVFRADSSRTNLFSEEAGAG
Put plainly: Cell-based receptor activation reporter assay (SEAP / Dual-Glo luciferase). To be noted: table S3. How it is done:
as §1

In another assay the target is T4, hamster TAAR9 (Mesocricetus auratus, UniProt A0A1U7R5X1).
T4 construct: Rho tag (N-terminal 20 aa of bovine rhodopsin); expressed in transfected cells; host or cells: HEK293T (SEAP assay) or Hana3A (Dual-Glo luciferase assay)
T4 sequence (A0A1U7R5X1 1-348): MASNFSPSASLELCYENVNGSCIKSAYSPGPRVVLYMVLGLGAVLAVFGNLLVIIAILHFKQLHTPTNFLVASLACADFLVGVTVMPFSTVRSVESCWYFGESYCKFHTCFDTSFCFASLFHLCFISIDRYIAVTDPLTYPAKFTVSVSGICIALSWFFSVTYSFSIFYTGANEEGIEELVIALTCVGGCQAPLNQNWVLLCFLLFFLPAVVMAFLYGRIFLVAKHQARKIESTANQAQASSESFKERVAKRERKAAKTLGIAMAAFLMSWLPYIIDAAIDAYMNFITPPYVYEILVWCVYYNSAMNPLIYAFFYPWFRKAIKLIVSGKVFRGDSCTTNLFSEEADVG
Described as above. To be noted: table S3. How it is done: as §1

A further assay deals with cat TAAR9. The assay is described as above. Conditions: table S3. How it is done:
as §1

The target of another assay is T5, rabbit TAAR9 (Oryctolagus cuniculus, UniProt G1SUU9).
T5 construct: Rho tag (N-terminal 20 aa of bovine rhodopsin); expressed in transfected cells; host or cells: HEK293T (SEAP assay) or Hana3A (Dual-Glo luciferase assay)
T5 sequence (G1SUU9 1-348): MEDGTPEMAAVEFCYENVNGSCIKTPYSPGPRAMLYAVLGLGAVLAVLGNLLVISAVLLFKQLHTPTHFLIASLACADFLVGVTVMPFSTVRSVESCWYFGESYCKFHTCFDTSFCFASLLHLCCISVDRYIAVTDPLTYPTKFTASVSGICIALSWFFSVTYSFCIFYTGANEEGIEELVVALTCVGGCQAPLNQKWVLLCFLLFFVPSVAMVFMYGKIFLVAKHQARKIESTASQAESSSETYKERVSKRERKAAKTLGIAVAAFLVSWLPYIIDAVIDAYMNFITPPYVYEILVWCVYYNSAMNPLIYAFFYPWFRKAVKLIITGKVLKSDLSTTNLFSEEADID
Described as above. Conditions: table S3. How it is done:
as §1

In the next assay the test system is zebrafish TAAR13c. On the set-up: method as in Hussain et al. 2013. To be noted: ref Hussain et al. 2013; cited from earlier work.
Assay [1] relates to TARLL2a (also called TAAR346a). On the set-up: method as in Scott et al. 2019. Conditions: ref Scott et al. 2019; cited from earlier work.
For the next assay, the system named is mouse TAAR9. On the set-up: method as in Saraiva et al. 2016. Conditions: ref Saraiva et al. 2016; cited from earlier work.
For another assay, the target named is horse TAAR4 (Equus caballus, UniProt F7BPI5). Put plainly: Cell-based receptor activation reporter assay (SEAP / Dual-Glo luciferase). How it is done: as §1
Sequence of horse TAAR4 (F7BPI5 entry or part of it): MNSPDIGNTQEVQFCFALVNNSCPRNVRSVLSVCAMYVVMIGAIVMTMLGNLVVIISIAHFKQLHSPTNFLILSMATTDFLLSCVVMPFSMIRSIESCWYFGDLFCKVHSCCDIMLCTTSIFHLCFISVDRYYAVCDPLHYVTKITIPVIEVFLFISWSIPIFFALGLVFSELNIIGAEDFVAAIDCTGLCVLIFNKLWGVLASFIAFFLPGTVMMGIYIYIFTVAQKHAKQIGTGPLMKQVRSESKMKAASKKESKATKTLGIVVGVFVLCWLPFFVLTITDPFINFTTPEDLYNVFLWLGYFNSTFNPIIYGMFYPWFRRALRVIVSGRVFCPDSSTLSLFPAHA
The target in another assay is hamster TAAR4 (Mesocricetus auratus, UniProt A0A1U7Q3I9). The assay is described as above. How it is done:
as §1

The target of a further assay is guinea pig TAAR4 (Cavia porcellus, UniProt H0W119). The description is as above. How it is done: as §1
Sequence of guinea pig TAAR4 (H0W119 entry or part of it): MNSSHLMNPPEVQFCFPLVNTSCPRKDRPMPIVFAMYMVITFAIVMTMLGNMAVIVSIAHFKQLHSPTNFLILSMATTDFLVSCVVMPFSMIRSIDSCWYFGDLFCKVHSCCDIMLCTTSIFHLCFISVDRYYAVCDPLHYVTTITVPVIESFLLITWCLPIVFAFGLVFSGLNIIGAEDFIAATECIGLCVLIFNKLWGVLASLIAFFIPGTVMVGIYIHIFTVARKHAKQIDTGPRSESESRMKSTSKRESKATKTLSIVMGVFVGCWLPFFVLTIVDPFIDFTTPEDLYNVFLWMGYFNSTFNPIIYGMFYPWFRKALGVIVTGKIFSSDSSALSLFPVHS
The target of another assay is zebrafish TAAR12j (Danio rerio, UniProt Q5QNN7). Described as above. How it is done: as §1
Sequence of zebrafish TAAR12j (Q5QNN7 entry or part of it): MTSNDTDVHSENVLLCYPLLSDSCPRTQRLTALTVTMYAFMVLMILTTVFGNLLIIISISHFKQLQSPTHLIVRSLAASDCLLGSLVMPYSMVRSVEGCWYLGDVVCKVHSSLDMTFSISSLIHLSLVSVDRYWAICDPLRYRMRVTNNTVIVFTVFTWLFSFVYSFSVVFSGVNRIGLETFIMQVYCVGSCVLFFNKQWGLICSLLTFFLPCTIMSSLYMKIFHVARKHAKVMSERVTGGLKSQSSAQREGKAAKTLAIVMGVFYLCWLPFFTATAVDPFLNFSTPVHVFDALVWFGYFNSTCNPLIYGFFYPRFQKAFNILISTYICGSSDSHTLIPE
In the next assay the target is cat TAAR4 (Felis catus, UniProt A0ABI7X9K0). The description is as above. How it is done:
as §1

The next assay has as its target cow TAAR4 (Bos taurus, UniProt F1MNY9). The assay is described as above. How it is done:
as §1

Another assay has as its system TARL1. Put plainly: Response to 16 ligands at 10 µM, luciferase assay. The class given is cell-based. Conditions: fig. 5B. How it is done:
(§3) Ligand profiles and expression patterns of HTR4, TARL, and TAAR1. (A) qPCR analysis of different receptors in zebrafish tissues. Gapdh serves as a control. (B) Response of HTR4, TARL, TAARC1, and TAAR1 to 16 ligands at 10 μM. The heatmap is based on the ratio of fluorescence intensity of ligand–receptor interaction and no ligand controls in the luciferase assay. […] (C) PhyloPCA analysis on the responses of HTR4, TARL, TAARC1, and TAAR1 to these 16 ligands. […] Dots colored by receptor clades represent the ligand responses of receptors on the first two PC axes. Ligand eigenvectors are represented by lines and colored according to the ligand clusters. A ligand name is shown at the tip of the line if its eigenvector has a higher contribution (compared with other ligands) to either PC1 or PC2. […] (D) The presence of HTR4, TARL1, TARL2, and TAAR1 in several representative species in vertebrates is plotted. […]
(§4) Hana3A cells were plated onto 96-well plates (Greiner bio-one) with 50 µl growth medium (DMEM medium with 10% BCS and 5% penicillin–streptomycin solution with puromycin) and cultured at 37 °C with 5% CO2. […] The chemiluminescence of firefly luciferase and renilla luciferase were measured with a Biotek Microplate reader using the Dual-Glo Luciferase Assay System (Promega).

Another assay has as its system TARL2. The assay can be described thus: Response to 16 ligands at 10 µM, luciferase assay. The class given is cell-based, coelacanth and shark. To be noted: fig. 5B. How it is done: as §3, §4

Sequence of cat TAAR4 (A0ABI7X9K0 entry or part of it): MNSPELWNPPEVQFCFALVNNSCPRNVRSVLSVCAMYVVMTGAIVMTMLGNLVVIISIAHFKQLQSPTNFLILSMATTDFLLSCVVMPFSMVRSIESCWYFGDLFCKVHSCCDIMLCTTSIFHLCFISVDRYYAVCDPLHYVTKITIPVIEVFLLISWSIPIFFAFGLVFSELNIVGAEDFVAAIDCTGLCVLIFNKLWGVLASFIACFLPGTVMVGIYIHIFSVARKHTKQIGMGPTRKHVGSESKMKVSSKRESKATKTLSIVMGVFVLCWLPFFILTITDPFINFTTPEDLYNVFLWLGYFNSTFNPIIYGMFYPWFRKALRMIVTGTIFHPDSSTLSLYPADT
Sequence of hamster TAAR4 (A0A1U7Q3I9 entry or part of it): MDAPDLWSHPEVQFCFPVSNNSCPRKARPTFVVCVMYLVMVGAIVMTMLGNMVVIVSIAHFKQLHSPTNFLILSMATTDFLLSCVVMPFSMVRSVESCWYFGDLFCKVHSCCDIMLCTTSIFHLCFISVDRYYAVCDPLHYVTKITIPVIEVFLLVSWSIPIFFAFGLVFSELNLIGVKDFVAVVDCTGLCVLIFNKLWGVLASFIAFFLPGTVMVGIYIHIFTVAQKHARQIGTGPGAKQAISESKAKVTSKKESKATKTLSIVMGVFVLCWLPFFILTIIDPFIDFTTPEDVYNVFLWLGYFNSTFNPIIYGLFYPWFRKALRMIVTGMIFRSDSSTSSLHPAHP
Sequence of cow TAAR4 (F1MNY9 entry or part of it): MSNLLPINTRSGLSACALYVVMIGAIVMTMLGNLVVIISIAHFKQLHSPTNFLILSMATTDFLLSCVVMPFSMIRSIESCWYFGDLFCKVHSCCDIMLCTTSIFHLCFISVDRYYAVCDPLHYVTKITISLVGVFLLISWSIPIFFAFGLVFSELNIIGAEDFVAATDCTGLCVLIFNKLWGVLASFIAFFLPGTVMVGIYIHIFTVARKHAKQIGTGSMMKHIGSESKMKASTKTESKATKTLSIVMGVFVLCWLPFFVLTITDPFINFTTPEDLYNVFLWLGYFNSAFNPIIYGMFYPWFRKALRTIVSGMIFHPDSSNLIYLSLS

For the compound `CN1CCCCC1` [1-methylpiperidine], the figures for the EC50 on mouse TAAR5, on mouse TAAR8c and on shark TAARS1b were 8.2 µM, 1500 nM and 17.6 µM, respectively.
On to `CN(C)CCCCN(C)C` [N,N,N',N'-tetramethyl-1,4-butanediamine, N,N,N′,N′-tetramethyl-1,4-butanediamine], for which it took 40.4 µM to reach a half-maximal effect on TARLL3h (TARLL3h) (EC50). At TARLL3h (fig. 4C), the “ligand recognition by TARLL3h” value was “recognizes”. In the assay with TARLL3h Y3.33A, the “receptor activity of TARLL3h mutant Y3.33A” value is “completely eliminated the receptor activity”. Further, the “EC50 of TARLL3h mutant Y3.33F relative to wild type receptor” value with TARLL3h Y3.33F is “EC50 three times higher than wild type receptor”. Also, the “receptor activity of TARLL3h mutant D3.32A” value in the assay on TARLL3h D3.32A is “completely eliminated the receptor activity”.
Turning to `NCCCCCN` [Cadaverine, cadaverine], the “activation of TAAR9” value on rat TAAR9, on hamster TAAR9, in the assay with cat TAAR9 and on rabbit TAAR9 was “activation” each time. Further, the “activation of TAAR13c” value in the assay with zebrafish TAAR13c is given as “activates”. Further, the “ligand recognition by TARLL2a” value in assay [1] is listed as “recognize”. Moreover, the “ligand recognition by mouse TAAR9” value with mouse TAAR9 is reported as “can recognize”.
As to `NCCc1ccccc1` [Phenylethylamine, phenylethylamine], the 50% effective concentration (EC50) is 100 µM and ~100 µM at horse TAAR4; 300 µM and ~300 µM on hamster TAAR4; 150 µM and ~150 µM on guinea pig TAAR4; 4.8 µM on zebrafish TAAR12j; 30 µM and ~30 µM at cat TAAR4; 98.4 µM at cow TAAR4. Besides, the TARL1 ligand profile entry with TARL1 was “ligands include”. Moreover, in the assay with TARL2, the TARL2 ligand profile result was “cannot recognize”.
